Data published in patent publication US20220323383A1, “SMALL-MOLECULAR ADJUVANTS AND IMPLEMENTATIONS THEREOF” (JAWAHARLAL NEHRU CENTRE FOR ADVANCED SCIENTIFIC RESEARCH, priority 2019, published 2022).
Structures can show the parent of a compound that is named as a salt.

Legend:
Type in all cases: cell-based
K. pneumoniae R3934 = assay: Chequerboard combination efficacy of adjuvant with antibiotics
In short: (§1)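 Two-fold chequerboard broth microdilution of adjuvant plus antibiotic; 6 h cultures in peptone diluted to ~10^5 cfu/mL, incubated 24 h at 37 °C, 150 rpm, OD600 read. Wells matching media control define inhibitory concentrations; FIC index (FICantibiotic+FICadjuvant) and potentiation factor (MIC alone/MIC with adjuvant) calculated.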

E. coli R3336 = assay: as above
In short: as §1

A. baumannii R674 = assay: as above
In short: as §1

human RBCs = assay: Haemolytic activity; details: concentration at which 50% of human blood cells are lysed; 1 h at 37° C.
In short: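 Human erythrocytes (5 vol % in PBS, pH 7.4) were incubated with serially diluted compound for 1 h at 37 °C, and A540 of the supernatant was read after centrifugation. Hemolysis was scaled between untreated (0%) and Triton X-100 (100%) wells. HC50 is the concentration lysing 50% of cells.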

NCCCC[C@H](N)C(=O)NCCCCCCN(CCCCCCNC(=O)[C@@H](N)CCCCN)C(=O)Cc1cccc2ccccc12 [Compound 13, N,N-bis-[(6-(^LLys)amido)hexyl] naphthyl ethanamide tetrakistrifluoroacetate]
FICI (K. pneumoniae R3934; antibiotic Fusidic acid): <0.133 | MIC of antibiotic in presence of adjuvant (K. pneumoniae R3934; antibiotic Fusidic acid): 4 mg/L | Potentiation factor (K. pneumoniae R3934; antibiotic Fusidic acid): 128 | FICI (K. pneumoniae R3934; antibiotic Linezolid): <0.25 | MIC of antibiotic in presence of adjuvant (K. pneumoniae R3934; antibiotic Linezolid): 64 mg/L | Potentiation factor (K. pneumoniae R3934; antibiotic Linezolid): >8 | FICI (K. pneumoniae R3934; antibiotic Minocycline): <0.07 | MIC of antibiotic in presence of adjuvant (K. pneumoniae R3934; antibiotic Minocycline): 0.5 mg/L | Potentiation factor (K. pneumoniae R3934; antibiotic Minocycline): 128 | FICI (K. pneumoniae R3934; antibiotic Rifampicin): <0.064 | MIC of antibiotic in presence of adjuvant (K. pneumoniae R3934; antibiotic Rifampicin): 1 mg/L | Potentiation factor (K. pneumoniae R3934; antibiotic Rifampicin): 512 | FICI (E. coli R3336; antibiotic Fusidic acid): <0.125 | MIC of antibiotic in presence of adjuvant (E. coli R3336; antibiotic Fusidic acid): 32 mg/L | Potentiation factor (E. coli R3336; antibiotic Fusidic acid): >16 | MIC of antibiotic in presence of adjuvant (E. coli R3336; antibiotic Linezolid): No potentiation | FICI (E. coli R3336; antibiotic Minocycline): <0.031 | MIC of antibiotic in presence of adjuvant (E. coli R3336; antibiotic Minocycline): 0.5 mg/L | Potentiation factor (E. coli R3336; antibiotic Minocycline): 64 | FICI (E. coli R3336; antibiotic Rifampicin): <0.031 | MIC of antibiotic in presence of adjuvant (E. coli R3336; antibiotic Rifampicin): 8 mg/L | Potentiation factor (E. coli R3336; antibiotic Rifampicin): 64 | MIC of antibiotic in presence of adjuvant (A. baumannii R674; antibiotic Ampicillin): No potentiation | FICI (A. baumannii R674; antibiotic Ciprofloxacin): 0.3125 | MIC of antibiotic in presence of adjuvant (A. baumannii R674; antibiotic Ciprofloxacin): 64 mg/L | Potentiation factor (A. baumannii R674; antibiotic Ciprofloxacin): 4 | FICI (A. baumannii R674; antibiotic Erythromycin): 0.156 | MIC of antibiotic in presence of adjuvant (A. baumannii R674; antibiotic Erythromycin): 16 mg/L | Potentiation factor (A. baumannii R674; antibiotic Erythromycin): 32 | FICI (A. baumannii R674; antibiotic Fusidic acid): <0.023 | MIC of antibiotic in presence of adjuvant (A. baumannii R674; antibiotic Fusidic acid): <0.5 mg/L | Potentiation factor (A. baumannii R674; antibiotic Fusidic acid): >128 | FICI (A. baumannii R674; antibiotic Linezolid): 0.1875 | MIC of antibiotic in presence of adjuvant (A. baumannii R674; antibiotic Linezolid): 32 mg/L | Potentiation factor (A. baumannii R674; antibiotic Linezolid): 8 | FICI (A. baumannii R674; antibiotic Minocycline): 0.1875 | MIC of antibiotic in presence of adjuvant (A. baumannii R674; antibiotic Minocycline): 0.5 mg/L | Potentiation factor (A. baumannii R674; antibiotic Minocycline): 16 | FICI (A. baumannii R674; antibiotic Rifampicin): 0.023 | MIC of antibiotic in presence of adjuvant (A. baumannii R674; antibiotic Rifampicin): 1 mg/L | Potentiation factor (A. baumannii R674; antibiotic Rifampicin): 64 | MIC of antibiotic in presence of adjuvant (A. baumannii R674; antibiotic Streptomycin): No potentiation | FICI (A. baumannii R674; antibiotic Tetracycline): 0.375 | MIC of antibiotic in presence of adjuvant (A. baumannii R674; antibiotic Tetracycline): 16 mg/L | Potentiation factor (A. baumannii R674; antibiotic Tetracycline): 8 | FICI (A. baumannii R674; antibiotic Vancomycin): 0.5625 | MIC of antibiotic in presence of adjuvant (A. baumannii R674; antibiotic Vancomycin): 32 mg/L | Potentiation factor (A. baumannii R674; antibiotic Vancomycin): 2 | HC50 (human RBCs): >1024 µg/mL

NCCCC[C@H](N)C(=O)NCCCCCCN(CCCCCCNC(=O)[C@@H](N)CCCCN)C(=O)CC(c1ccccc1)c1ccccc1 [Compound 14, N,N-bis-[(6-(^LLys)amido)hexyl] 3,3-diphenyl propanamide tetrakis trifluoroacetate]
FICI (K. pneumoniae R3934; antibiotic Fusidic acid): <0.1289 | MIC of antibiotic in presence of adjuvant (K. pneumoniae R3934; antibiotic Fusidic acid): 2 mg/L | Potentiation factor (K. pneumoniae R3934; antibiotic Fusidic acid): 256 | FICI (K. pneumoniae R3934; antibiotic Linezolid): <0.1328 | MIC of antibiotic in presence of adjuvant (K. pneumoniae R3934; antibiotic Linezolid): 64 mg/L | Potentiation factor (K. pneumoniae R3934; antibiotic Linezolid): >8 | FICI (K. pneumoniae R3934; antibiotic Minocycline): <0.1328 | MIC of antibiotic in presence of adjuvant (K. pneumoniae R3934; antibiotic Minocycline): 0.5 mg/L | Potentiation factor (K. pneumoniae R3934; antibiotic Minocycline): 128 | FICI (K. pneumoniae R3934; antibiotic Rifampicin): <0.126 | MIC of antibiotic in presence of adjuvant (K. pneumoniae R3934; antibiotic Rifampicin): 0.5 mg/L | Potentiation factor (K. pneumoniae R3934; antibiotic Rifampicin): 1024 | FICI (E. coli R3336; antibiotic Fusidic acid): <0.0625 | MIC of antibiotic in presence of adjuvant (E. coli R3336; antibiotic Fusidic acid): 16 mg/L | Potentiation factor (E. coli R3336; antibiotic Fusidic acid): >32 | MIC of antibiotic in presence of adjuvant (E. coli R3336; antibiotic Linezolid): No potentiation | FICI (E. coli R3336; antibiotic Minocycline): <0.0156 | MIC of antibiotic in presence of adjuvant (E. coli R3336; antibiotic Minocycline): <0.25 mg/L | Potentiation factor (E. coli R3336; antibiotic Minocycline): >128 | FICI (E. coli R3336; antibiotic Rifampicin): <0.047 | MIC of antibiotic in presence of adjuvant (E. coli R3336; antibiotic Rifampicin): 4 mg/L | Potentiation factor (E. coli R3336; antibiotic Rifampicin): 128 | MIC of antibiotic in presence of adjuvant (A. baumannii R674; antibiotic Ampicillin): No potentiation | FICI (A. baumannii R674; antibiotic Ciprofloxacin): <0.281 | MIC of antibiotic in presence of adjuvant (A. baumannii R674; antibiotic Ciprofloxacin): 64 mg/L | Potentiation factor (A. baumannii R674; antibiotic Ciprofloxacin): 4 | FICI (A. baumannii R674; antibiotic Erythromycin): <0.0625 | MIC of antibiotic in presence of adjuvant (A. baumannii R674; antibiotic Erythromycin): 16 mg/L | Potentiation factor (A. baumannii R674; antibiotic Erythromycin): 32 | FICI (A. baumannii R674; antibiotic Fusidic acid): <0.012 | MIC of antibiotic in presence of adjuvant (A. baumannii R674; antibiotic Fusidic acid): <0.5 mg/L | Potentiation factor (A. baumannii R674; antibiotic Fusidic acid): >128 | FICI (A. baumannii R674; antibiotic Linezolid): <0.156 | MIC of antibiotic in presence of adjuvant (A. baumannii R674; antibiotic Linezolid): 32 mg/L | Potentiation factor (A. baumannii R674; antibiotic Linezolid): 8 | FICI (A. baumannii R674; antibiotic Minocycline): <0.129 | MIC of antibiotic in presence of adjuvant (A. baumannii R674; antibiotic Minocycline): 1 mg/L | Potentiation factor (A. baumannii R674; antibiotic Minocycline): 8 | FICI (A. baumannii R674; antibiotic Rifampicin): <0.017 | MIC of antibiotic in presence of adjuvant (A. baumannii R674; antibiotic Rifampicin): <0.125 mg/L | Potentiation factor (A. baumannii R674; antibiotic Rifampicin): >512 | MIC of antibiotic in presence of adjuvant (A. baumannii R674; antibiotic Streptomycin): No potentiation | FICI (A. baumannii R674; antibiotic Tetracycline): <0.25 | MIC of antibiotic in presence of adjuvant (A. baumannii R674; antibiotic Tetracycline): 16 mg/L | Potentiation factor (A. baumannii R674; antibiotic Tetracycline): 8 | FICI (A. baumannii R674; antibiotic Vancomycin): <0.3125 | MIC of antibiotic in presence of adjuvant (A. baumannii R674; antibiotic Vancomycin): 16 mg/L | Potentiation factor (A. baumannii R674; antibiotic Vancomycin): 4 | HC50 (human RBCs): >1024 µg/mL
